From patent publication US20260132129A1 (Genesis Therapeutics, Inc., priority 2022, published 2026)

Biological target: T1, PI3Kα H1047R (T47D cells) (Homo sapiens, UniProt P42336, H1047R)
T1 construct: endogenous in cells; host or cells: T47D cells
Assay: PI3Kα cellular assay: pAKT HTRF in T47D cells after EGF stimulation
Format: cell-based
Settings: for IC50: T47D cells (PI3Kα H1047R), pAKT S473 HTRF
In short: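 T47D cells (PIK3CA H1047R) serum-starved 16 h, then treated 1 h at 37 °C with compound (10,000 nM top, 3-fold steps to 0.5 nM). After 10 min stimulation with 20 ng/mL EGF, cells were lysed and pAKT measured by HTRF.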

[1] = selectivity T47D (H1047R) over SKBR3 (WT), pAKT HTRF
[2] = selectivity of T47D (H1047R) over SKBR3 (WT) pAKT IC50
[3] = 1 hr compound, 20 ng/ml EGF 10 min

T1 sequence (P42336 whole entry H1047R): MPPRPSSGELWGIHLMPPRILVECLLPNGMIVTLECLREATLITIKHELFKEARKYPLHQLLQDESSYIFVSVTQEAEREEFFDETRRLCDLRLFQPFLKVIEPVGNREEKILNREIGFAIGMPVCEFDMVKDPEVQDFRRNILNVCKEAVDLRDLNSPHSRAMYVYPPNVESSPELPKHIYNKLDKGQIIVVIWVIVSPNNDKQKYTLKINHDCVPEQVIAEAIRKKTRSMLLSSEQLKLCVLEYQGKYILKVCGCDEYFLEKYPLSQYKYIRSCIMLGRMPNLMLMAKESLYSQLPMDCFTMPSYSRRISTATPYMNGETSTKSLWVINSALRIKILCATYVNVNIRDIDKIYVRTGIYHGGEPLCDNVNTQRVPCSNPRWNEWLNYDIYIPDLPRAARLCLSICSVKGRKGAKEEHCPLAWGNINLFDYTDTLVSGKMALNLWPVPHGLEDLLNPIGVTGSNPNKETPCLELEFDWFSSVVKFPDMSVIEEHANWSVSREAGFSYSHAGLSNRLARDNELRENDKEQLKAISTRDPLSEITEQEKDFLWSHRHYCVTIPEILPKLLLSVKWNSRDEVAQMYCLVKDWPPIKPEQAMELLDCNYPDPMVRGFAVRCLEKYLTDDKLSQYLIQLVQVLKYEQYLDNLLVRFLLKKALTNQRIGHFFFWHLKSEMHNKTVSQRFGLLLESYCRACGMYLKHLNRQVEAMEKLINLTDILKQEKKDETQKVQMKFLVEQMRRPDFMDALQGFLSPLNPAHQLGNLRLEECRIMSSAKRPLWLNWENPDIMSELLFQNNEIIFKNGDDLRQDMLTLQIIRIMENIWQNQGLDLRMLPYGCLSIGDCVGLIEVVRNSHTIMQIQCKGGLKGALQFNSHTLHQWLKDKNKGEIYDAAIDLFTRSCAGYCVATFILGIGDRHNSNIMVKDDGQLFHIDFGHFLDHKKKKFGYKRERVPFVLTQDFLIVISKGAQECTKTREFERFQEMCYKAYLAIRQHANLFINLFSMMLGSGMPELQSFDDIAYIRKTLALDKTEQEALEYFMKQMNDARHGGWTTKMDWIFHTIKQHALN
T1 sequence (P27986 whole entry partner): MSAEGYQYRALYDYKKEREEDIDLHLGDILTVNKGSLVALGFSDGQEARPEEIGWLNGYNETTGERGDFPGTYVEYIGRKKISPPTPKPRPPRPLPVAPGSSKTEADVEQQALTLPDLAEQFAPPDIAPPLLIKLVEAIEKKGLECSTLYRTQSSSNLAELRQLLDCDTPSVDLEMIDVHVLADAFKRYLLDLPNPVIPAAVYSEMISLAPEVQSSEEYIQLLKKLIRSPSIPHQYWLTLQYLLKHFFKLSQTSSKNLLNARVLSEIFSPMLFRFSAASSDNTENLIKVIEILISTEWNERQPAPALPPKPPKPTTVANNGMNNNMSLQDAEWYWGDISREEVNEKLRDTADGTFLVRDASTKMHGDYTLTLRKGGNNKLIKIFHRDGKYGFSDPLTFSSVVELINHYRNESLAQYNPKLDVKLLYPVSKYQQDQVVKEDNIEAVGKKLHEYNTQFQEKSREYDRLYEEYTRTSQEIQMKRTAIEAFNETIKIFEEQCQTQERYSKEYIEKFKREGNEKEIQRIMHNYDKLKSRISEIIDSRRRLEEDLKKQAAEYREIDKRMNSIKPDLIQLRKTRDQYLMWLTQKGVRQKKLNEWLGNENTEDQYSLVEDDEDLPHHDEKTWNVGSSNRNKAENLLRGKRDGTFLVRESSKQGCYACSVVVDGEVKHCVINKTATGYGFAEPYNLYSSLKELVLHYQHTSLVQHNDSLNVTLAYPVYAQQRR

Structure (SMILES)	IC50 (EGF stimulation) [nM]	T47D pAKT S473 HTRF IC50 (H1047R): T47D (H1047R) selectivity over SKBR3 (WT) [1]	T47D pAKT S473 HTRF IC50 (H1047R): T47D (H1047R) selectivity over SKBR3 (WT) [2]	IC50 [3] [nM]
Cc1cc([C@H](C)Nc2ccccc2S(N)(=O)=O)c2nc(-c3cccnc3)c(C)c(=O)n2c1 [Compound 1108]	500 to 2000	B (B denotes 20-fold≥value>5-fold)	–	–
Cc1cc([C@H](C)N[C@@H](C(=O)O)c2ccccc2)c2nc(N3CCOCC3)cc(=O)n2c1 [Compound 651]	> 2000	–	C (C denotes ≤5-fold)	–
Cc1cc([C@H](C)Nc2ccccc2S(N)(=O)=O)c2nc(-c3ccc(F)c(C#N)c3)c(C)c(=O)n2c1 [Compound 1032]	> 2000	–	C (C denotes ≤5-fold)	–
CONC(=O)c1ccc(-c2cc(=O)n3cc(C)cc([C@@H](C)Nc4ccccc4C(=O)O)c3n2)cc1 [Compound 485]	–	C (C denotes ≤5-fold)	–	> 2000
Cc1cc(C(C)Nc2ccccc2C2(O)COC2)c2nc(-c3cccc(F)c3)c(C)c(=O)n2c1 (centres unmarked) [Compound 1389, 2-(3-fluorophenyl)-9-(1-((2-(3-hydroxyoxetan-3-yl)phenyl)amino)ethyl)-3,7-dimethyl-4H-pyrido[1,2-a]pyrimidin-4-one]	500 to 2000	B (B denotes 20-fold≥value>5-fold)	–	–
Cc1cc([C@H](C)Nc2ccccc2C(=O)O)c2nc(-c3ccc(CNc4[nH]cc(C)c4C#N)c(C)c3)c(C)c(=O)n2c1 [Compound 1307]	–	B (B denotes 20-fold≥value>5-fold)	–	–
Cc1cc(C(C)Nc2ccccc2C(=O)O)c2nc(-n3cnc4ccc(O)cc43)cc(=O)n2c1 (centres unmarked) [Compound 799]	> 2000	–	C (C denotes ≤5-fold)	–
Cc1cc([C@H](C)Nc2ccccc2-c2ccnnc2)c2nc(N3CCOCC3)cc(=O)n2c1 [Compound 496]	–	C (C denotes ≤5-fold)	–	500 to 2000
Cc1cc([C@H](C)Nc2ccccc2C(=O)NS(=O)(=O)N(C)C)c2nc(-c3cccc(F)c3)c(C)c(=O)n2c1 [Compound 1347]	–	B (B denotes 20-fold≥value>5-fold)	–	–
CC#Cc1nc2c([C@H](C)Nc3ccccc3C(=O)O)cc(C)cn2c(=O)c1C [Compound 1206]	500 to 2000	B (B denotes 20-fold≥value>5-fold)	–	–
Cc1cc([C@@H](C)Nc2ccccc2-c2ccnnc2)c2nc(-c3ccc4c(C)nn(C5CC5)c4c3)c(C)c(=O)n2c1 [Compound 1128]	> 2000	C (C denotes ≤5-fold)	–	–
Cc1cc(C(C)Nc2ccccc2-c2ccnnc2)c2nc(N3Cc4ccccc4C3)c(C3CC3)c(=O)n2c1 (centres unmarked) [Compound 832]	500 to 2000	–	B (B denotes 20-fold≥value>5-fold)	–
Cc1cc([C@H](C)Nc2ccccc2C(=O)O)c2nc(C3CCN(CC(N)=O)CC3)cc(=O)n2c1 [Compound 510]	–	C (C denotes ≤5-fold)	–	> 2000
Cc1cc(C(C)Nc2ccccc2-c2ccnnc2)c2nc(-c3ccc4c(C)cn(C)c4c3)c(C)c(=O)n2c1 (centres unmarked) [Compound 1132]	> 2000	C (C denotes ≤5-fold)	–	–
Cc1cc([C@@H](C)Nc2ccccc2S(N)(=O)=O)c2nc(-c3ccc4c(c3)c(C)nn4C3CC3)c(C)c(=O)n2c1 [Compound 961]	100 to 500	–	A (A denotes >20-fold)	–
Cc1cc([C@H](C)Nc2ccccc2C(=O)O)c2nc(C3Cc4ccccc4C3)c(C3CC3)c(=O)n2c1 (single isomer, unassigned) [Compound 983]	500 to 2000	–	B (B denotes 20-fold≥value>5-fold)	–
Cc1cc([C@@H](C)Nc2ccccc2C(=O)O)c2nc([C@H]3CCOC3)cc(=O)n2c1 [Compound 537]	–	B (B denotes 20-fold≥value>5-fold)	–	500 to 2000
Cc1cc([C@H](C)Nc2ccccc2S(=O)(=O)O)c2nc(-c3ccc(C4CC4)cc3)c(C3CC3)c(=O)n2c1 [Compound 1275]	> 2000	C (C denotes ≤5-fold)	–	–
Cc1cc([C@H](C)Nc2ccccc2C(=O)O)c2nc(N3C[C@H]4C[C@@H](C5CCN(S(=O)(=O)N(C)C)CC5)C[C@H]4C3)cc(=O)n2c1 [Compound 935]	–	–	C (C denotes ≤5-fold)	–
CCc1cc(C(=O)NOC)ccc1-c1cc(=O)n2cc(C)cc([C@H](C)Nc3ccccc3C(=O)O)c2n1 [Compound 504]	–	C (C denotes ≤5-fold)	–	> 2000
Cc1cc(C(C)Nc2ccccc2C(=O)O)c2nc(-c3ccc4c(c3)c(C)nn4C)cc(=O)n2c1 (centres unmarked) [Compound 695]	–	–	A (A denotes >20-fold)	–

Structure (SMILES)	IC50 (EGF stimulation) [nM]	T47D pAKT S473 HTRF IC50 (H1047R): T47D (H1047R) selectivity over SKBR3 (WT) [1]	T47D pAKT S473 HTRF IC50 (H1047R): T47D (H1047R) selectivity over SKBR3 (WT) [2]	IC50 [3] [nM]
Cc1cc([C@H](C)Nc2ccccc2C(N)=O)c2nc(-c3ccncc3)cc(=O)n2c1 (single isomer, unassigned) [Compound 440]	–	B (B denotes 20-fold≥value>5-fold)	–	500 to 2000
Cc1cc([C@@H](C)N(C)c2ccccc2C(=O)O)c2nc(N3CCOCC3)cc(=O)n2c1 [Compound 309]	–	C (C denotes ≤5-fold)	–	> 2000
Cc1cc(C(C)Nc2ccccc2C(=O)O)c2nc(-c3cc(C(N)=O)c4[nH]ccc4c3)cc(=O)n2c1 (centres unmarked) [Compound 753]	500 to 2000	–	B (B denotes 20-fold≥value>5-fold)	–
Cc1cc([C@H](C)Nc2cccc3[nH]c(=O)oc23)c2nc(N3CCOCC3)cc(=O)n2c1 [Compound 566]	–	C (C denotes ≤5-fold)	–	> 2000
Cc1cc(C(C)Nc2cccnc2C(=O)O)c2nc(-c3ccnc(C4CC4)c3)c(C)c(=O)n2c1 (centres unmarked) [Compound 1241]	> 2000	A (A denotes >20-fold)	–	–
Cc1cc([C@H](C)Nc2ccccc2C(=O)O)c2nc(-c3cnc4cc(O)ccn34)cc(=O)n2c1 [Compound 812]	> 2000	–	C (C denotes ≤5-fold)	–
CCC(=O)Nc1ccc(C(=O)O)c(NC(C)c2cc(C)cn3c(=O)cc(N4CCOCC4)nc23)c1 (centres unmarked) [Compound 791]	> 2000	–	C (C denotes ≤5-fold)	–
Cc1cc(C(C)Nc2ccccc2S(N)(=O)=O)c2nc(-c3cccc(C#N)c3)c(C)c(=O)n2c1 (centres unmarked) [Compound 1033]	100 to 500	–	A (A denotes >20-fold)	–
Cc1cc(C(C)Nc2ccccc2C(=O)O)c2nc(-c3ccc4[nH]nc(-c5ccccn5)c4c3)cc(=O)n2c1 (centres unmarked) [Compound 318]	–	C (C denotes ≤5-fold)	–	> 2000
Cc1cc([C@@H](C)Nc2ccccc2C(=O)O)c2nc(N3C[C@@H](C)O[C@@H](C)C3)cc(=O)n2c1 [Compound 319]	–	A (A denotes >20-fold)	–	100 to 500
Cc1cc(CCNc2ccc(F)cc2C(=O)O)c2nc(N3CCOCC3)cc(=O)n2c1 [Compound 806]	> 2000	–	C (C denotes ≤5-fold)	–
Cc1cc([C@@H](C)Nc2ccccc2C(=O)O)c2nc(C3CCN(C(=O)C4(N)CC4)CC3)cc(=O)n2c1 [Compound 525]	–	C (C denotes ≤5-fold)	–	> 2000
CC(Nc1ccccc1C(=O)O)c1cc(C(F)(F)F)cn2c(=O)cc(N3C[C@@H](C)O[C@@H](C)C3)nc12 (some centres unmarked) [Compound 898]	–	–	A (A denotes >20-fold)	–
Cc1cc([C@H](C)Nc2ccccc2C(=O)O)c2nc([C@@H]3CCCOC3)c(C)c(=O)n2c1 [Compound 1281]	500 to 2000	B (B denotes 20-fold≥value>5-fold)	–	–
Cc1cc([C@@H](C)Nc2ccccc2-n2nn[nH]c2=O)c2nc(N3CCOCC3)cc(=O)n2c1 [Compound 343]	–	C (C denotes ≤5-fold)	–	> 2000
Cc1cc(C(C)Nc2ccccc2C(=O)O)c2nc(-n3cc(C(N)=O)c4ccccc43)cc(=O)n2c1 (centres unmarked) [Compound 771]	500 to 2000	–	B (B denotes 20-fold≥value>5-fold)	–
Cc1cc([C@H](C)Nc2ccccc2S(N)(=O)=O)c2nc(N3Cc4cccnc4C3)c(C)c(=O)n2c1 [Compound 1324]	–	A (A denotes >20-fold)	–	–
Cc1cc([C@@H](C)Nc2ccccc2C(=O)O)c2nc(-c3ccc4c(C)n[nH]c4c3)cc(=O)n2c1 [Compound 923]	–	–	B (B denotes 20-fold≥value>5-fold)	–
Cc1cc(C(C)NC2=CC=CCC2C(=O)O)c2nc(Cc3cccc(C4=CCCC=C4)c3)c(C)c(=O)n2c1 (centres unmarked) [Compound 300]	–	C (C denotes ≤5-fold)	–	> 2000
Cc1cc([C@@H](C)Nc2ccccc2C(=O)O)c2nc(-c3ccc4c(c3)COC4)cc(=O)n2c1 [Compound 851]	< 100	–	A (A denotes >20-fold)	–
Cc1cc([C@@H](C)Nc2ccccc2C(=O)O)c2nc(-c3ccc4nc(NC(=O)C5CC5)nn4c3)cc(=O)n2c1 [Compound 520]	–	C (C denotes ≤5-fold)	–	> 2000
